Assay results published in patent publication US8592368B2, “JAK/STAT inhibitors and MAPK/ERK inhibitors for RSV infection” (University of South Florida, priority 2003, dated 2013).

How the values were obtained:
A549 cells = format: cell-based, human
Experimental: (§1) FIGS. 4A-4F that blocking STAT-1α attenuates RSV gene transcription and infection. A549 cells were treated with 50 µM AG490 for 4 hours before being exposed to supRSV for 30 minutes. Lysates were separated by SDS-PAGE and immunoblotted using antibodies to phospho-STAT-1α and STAT-1α. The total number of syncytia-forming plaques (PFU/ml) was counted 72 hours post-infection. Each value represents means SEM (N=3, *p<0.001). Cell proliferation was determined by viable cell counts. A549 cells were cotransfected with the pRL-TK plasmid and either the WT (pRc/CMV STAT-1α) (lanes 1 and 2) or DN mutant (pRc/CMV STAT-1α) (Y701F) (lanes 3 and 4) and then exposed to supRSV for 30 minutes. Lysates were separated by SDS-PAGE and immunoblotted for phospho-STAT-1α or STAT-1α. A549 cells were transfected with WT or DN-STAT-1α constructs and 24 hours later exposed to RSV for 30 minutes. RSV replication was measured by RT-PCR analysis of N protein gene expression. The percentage of infected cells was determined using immunofluorescence in cells transfected with WT or DN-STAT-1α. The values are means SEM (*p<0.001).
To rule out the possibility that this effect on viral replication is due to diminished cell proliferation, viable cells were enumerated at 12, 24, 48, and 72 hours after treatment with inhibitors.

STAT-1α = STAT-1α phosphorylation in RSV-infected A549 cells (immunoblot); format: cell-based, human; conditions: for RSV-induced STAT-1α phosphorylation: A549 cells pre-incubated with AG490 (50 μM) or PD98059 for 4 hours, then RSV, densitometry of Western blot
Experimental: as §1
FIGS. 8A-8D show the effects of inhibitors of phosphorylation of STAT-1α and ERK-1/2. In FIG. 8A, AG490- or PD98059-treated A549 cells were infected with RSV for 15 minutes. Total proteins were Western-blotted using specific anti-phospho antibodies to STAT-1α, ERK-1/2 or IκBα. Lane 1: mock-infected, lanes 2-4: RSV infected for 30 minutes, lane 3: cells treated with 50 μM of AG490 prior to RSV infection, lane 4: cells treated with 25 μM of PD98059 for 4 hours prior RSV infection. In FIG. 8B, the bands were quantified by densitometry and the relative intensity of phosphoSTAT-1α, phospho-ERK and phospho-IκBα with respect to uninfected control (lane 1) was determined. The experiment was repeated twice and the result of a representative experiment is shown. […] A549 cells were co-transfected with RL-TK plasmid and either the WT (pRc/CMV-STAT-1α) (lanes 3 and 4) or DN mutant (pRc/CMV-STAT-1α) (Y701F) (lanes 5 and 6) and were infected with RSV for 30 minutes after 24 hours of transfection. […] In FIG. 8D, the bands were quantified by densitometry and the relative intensity of phospho-ERK and ERK was determined in each band. […]
Immunoblotting was carried out as previously described (Behera, A. K. et al. Biochem. Biophys. Res. Commun., 1998, 251(3): 704-709). After transfer, membranes were blocked with 5% non-fat dried milk, incubated with antibody to a specific STAT protein or to the corresponding phospho-STAT protein (NEW ENGLAND BIOLABS, Beverly, Mass.), secondary antibody conjugated to horseradish peroxidase was added, and immunocomplexes detected by enhanced chemiluminescence (NEW ENGLAND BIOLABS, Beverly, Mass.). […]

RSV [1] = assay: RSV plaque assay (syncytia-forming plaques, HEp-2 cell-based); set-up: species or system respiratory syncytial virus; conditions: A549 cells, AG490 pretreatment, plaques counted 72 hours post-infection
Experimental: as §1, with “(*p<0.001). […]” for “(*p<0.001).”

rgRSV = rgRSV infection of primary NHBE cells (fluorescent images); format: cell-based, respiratory syncytial virus; conditions: AG490 50 μM or PD98059 80 μM 2 hours before rgRSV, images after 16 hours
Experimental: FIGS. 10A-10F show the effects of STAT and ERK-1/2 inhibitors on RSV infection of NHBE cells. NHBE cells were treated with either AG490 (50 μM) (FIGS. 10C and 10D) or PD98059 (80 μM) (FIGS. 10E and 10F) for 2 hours. DMSO was used as a mock control (FIGS. 10A and 10B). After inhibitor removal, cells were infected with rgRSV for 2 hours. Then, rgRSV was removed and growth medium with inhibitors was added to the cells for 16 hours before fluorescent images (DMSO, FIG. 10B; AG490, FIG. 10D; PD98059, FIG. 10F) as well as light transmission images (DMSO, FIG. 10A; AG490, FIG. 10C; PD98059, FIG. 10E) were taken.
RSV A2 strain was obtained from the American Type Culture Collection (ATCC, Rockville, Md., USA). In some experiments, rgRSV (an engineered RSV expressing enhanced green fluorescent protein) was used. A549 cell line, representing type II alveolar epithelial cells, was obtained from the ATCC. The cells were grown at 37° C. in 5% CO2 in RPMI medium, supplemented with 10% fetal bovine serum. Normal human bronchial epithelial cells (NHBE) were obtained from CAMBREX (Walkersville, Md., USA) and grown in serum-free bronchial epithelium growth medium supplemented as indicated by the manufacturer. NHBE at passage 2 and 3 was used for the experiments.
A549 cells were incubated with AG490 (50 μM) or PD98059 (80 μM) for 4 hours at 37° C. and then infected with RSV. […]

ERK-1/2 = ERK-1/2 phosphorylation in RSV-infected A549 cells (immunoblot); format: cell-based, human
Experimental: Proteins were isolated from untreated cells (lane 1) or cells infected with RSV for 30 minutes (lanes 2-6) after pretreatment of cells for 30 minutes with heparinase (lane 3) or heparin (lane 5), or infected with virus pretreated with heparinase (lane 4) or heparin (lane 6) prior to addition to the cells. Proteins were separated by SDS-PAGE, blotted and probed with anti-phospho ERK-1/2 and then re-probed with anti-ERK-1/2.
FIGS. 8A-8D show the effects of inhibitors of phosphorylation of STAT-1α and ERK-1/2. In FIG. 8A, AG490- or PD98059-treated A549 cells were infected with RSV for 15 minutes. Total proteins were Western-blotted using specific anti-phospho antibodies to STAT-1α, ERK-1/2 or IκBα. Lane 1: mock-infected, lanes 2-4: RSV infected for 30 minutes, lane 3: cells treated with 50 μM of AG490 prior to RSV infection, lane 4: cells treated with 25 μM of PD98059 for 4 hours prior RSV infection. In FIG. 8B, the bands were quantified by densitometry and the relative intensity of phosphoSTAT-1α, phospho-ERK and phospho-IκBα with respect to uninfected control (lane 1) was determined. The experiment was repeated twice and the result of a representative experiment is shown. […] A549 cells were co-transfected with RL-TK plasmid and either the WT (pRc/CMV-STAT-1α) (lanes 3 and 4) or DN mutant (pRc/CMV-STAT-1α) (Y701F) (lanes 5 and 6) and were infected with RSV for 30 minutes after 24 hours of transfection. Total proteins were extracted and Western-blotted using antibodies to phospho-STAT-1α, phospho-ERK-1/2 and re-probed with antibodies to STAT-1α or ERK-1/2. In FIG. 8D, the bands were quantified by densitometry and the relative intensity of phospho-ERK and ERK was determined in each band. […]
Whole cell protein extracts were prepared by lysing cells in 50 mM HEPES, 150 mM NaCl, 1 mM EDTA, 1 mM EGTA, 10% glycerol, 0.5% NP-40, 0.1 mM phenylmethylsulfonyl fluoride, 2.5 μg/ml leupeptin, 0.5 mM NaF, and 0.1 mM sodium vanadate. […] The antibody reactions were detected by enhanced chemiluminescence using LUMIGLO (CELL SIGNALLING TECHNOLOGY). […]

IκBα = IκBα phosphorylation in RSV-infected A549 cells (immunoblot); format: cell-based, human; conditions: A549 cells pre-incubated with AG490 (50 μM) or PD98059 for 4 hours, then RSV
Experimental: FIGS. 8A-8D show the effects of inhibitors of phosphorylation of STAT-1α and ERK-1/2. In FIG. 8A, AG490- or PD98059-treated A549 cells were infected with RSV for 15 minutes. Total proteins were Western-blotted using specific anti-phospho antibodies to STAT-1α, ERK-1/2 or IκBα. Lane 1: mock-infected, lanes 2-4: RSV infected for 30 minutes, lane 3: cells treated with 50 μM of AG490 prior to RSV infection, lane 4: cells treated with 25 μM of PD98059 for 4 hours prior RSV infection. In FIG. 8B, the bands were quantified by densitometry and the relative intensity of phosphoSTAT-1α, phospho-ERK and phospho-IκBα with respect to uninfected control (lane 1) was determined. The experiment was repeated twice and the result of a representative experiment is shown. […] In FIG. 8D, the bands were quantified by densitometry and the relative intensity of phospho-ERK and ERK was determined in each band. […]
Whole cell protein extracts were prepared by lysing cells in 50 mM HEPES, 150 mM NaCl, 1 mM EDTA, 1 mM EGTA, 10% glycerol, 0.5% NP-40, 0.1 mM phenylmethylsulfonyl fluoride, 2.5 μg/ml leupeptin, 0.5 mM NaF, and 0.1 mM sodium vanadate. […] The antibody reactions were detected by enhanced chemiluminescence using LUMIGLO (CELL SIGNALLING TECHNOLOGY).

RSV [2] = assay: Immunofluorescence count of RSV-infected A549 cells; format: cell-based, respiratory syncytial virus; conditions: A549 cells treated with PD98059, 24 hours of RSV infection, vs control
Experimental: as §1, with “The values are means SEM (*p<0.001).” left out
In FIG. 9A, PD98059- or DMSO-treated A549 cells were infected with RSV. […] The RSV titers were determined using a HEP-2 cell-based plaque assay as described. […] Twenty-four hours after transfection, A549 cells were infected with RSV for 90 minutes and 24 hours after the % of infected cells was determined with FITC-RSV antibody. […]

HIV-1 = conditions: Yang and Gabuzda 1999; cited from earlier work
RSV [3] = conditions: treatment of cells; Feldman et al. 1999; cited from earlier work

| Molecule | cytotoxic or anti-proliferative effects (viable cell counts) (A549 cells) | RSV-induced STAT-1α phosphorylation (STAT-1α) | phosphorylation of STAT-1α (STAT-1α; A549 cells preincubated with AG490 for 4 hours, then supRSV 30 minutes, vs untreated controls) | RSV infection by plaque assay (PFU/ml) (RSV [1]) | number of infected cells (rgRSV) | ERK activation (phospho-ERK-1/2) (ERK-1/2; A549 cells pre-incubated with AG490 50 μM, then RSV) | IκBα phosphorylation (IκBα) | percentage of infected cells (RSV [2]) | infectivity of HIV-1 virions (HIV-1) | RSV infection (RSV [3]) | RSV-induced activation of STAT-1 (STAT-1α; A549 cells or RSV pretreated with heparin 1000 U/ml or heparinase 10 U/ml, RSV 30 minutes) | RSV-induced activation of ERK-1/2 (ERK-1/2; A549 cells, heparin pretreatment, RSV 30 minutes) | ERK-1/2 phosphorylation induced by pretreated RSV (ERK-1/2; RSV pretreated with heparin or heparinase before addition to A549 cells) |
| --- | --- | --- | --- | --- | --- | --- | --- | --- | --- | --- | --- | --- | --- |
| N#C/C(=C/c1ccc(O)c(O)c1)C(=O)NCc1ccccc1 [AG490] | no cytotoxic or anti-proliferative effects | decrease in RSV-induced STAT-1K phosphorylation | decreased phosphorylation of STAT-1α | significantly (p<0.001) decreased RSV infection | significant reduction in the number of infected cells | failed to inhibit ERK activation | decrease | – | – | – | – | – | – |
| COc1cccc(-c2cc(=O)c3ccccc3o2)c1N [PD98059] | – | significantly affected the phosphorylation | – | – | significant reduction in the number of infected cells | – | significantly affected the phosphorylation | decrease in the percentage of infected cells | reduced the infectivity of HIV-1 virions | – | – | – | – |
| heparin | – | – | – | – | – | – | – | – | – | blocks RSV infection | abolished | abolished the RSV-induced activation of ERK-1/2 | did not induce ERK-1/2 phosphorylation |
